Earlier results in patent publication US20140294972A1, “Oral Suspension” (NOVA BIO-PHARMA TECHNOLOGIES LIMITED, priority 2011, published 2014).

Conditions: neutral pH

Sc1ncnc2nc[nH]c12 [6-MP, 3,7-dihydropurine-6-thione]
water solubility: about 6.85 mg/mL
